pIC50, pKi: −log10 of the molar value.
What was measured:
[1] = Inhibition of HCV3a NS3/4A protease; parameters: species or system Hepatitis C virus subtype 3a
[2] = Drug level in Sprague-Dawley rat liver at 5 mg/kg, po after 4 hrs; type: ADME, organism-based; parameters: dose 5 mg/kg, route oral; settings: read-out: Drug uptake
Hepatitis C virus [3] = test: Inhibition of HCV1b NS3/4A protease; parameters: species or system Hepatitis C virus subtype 1b
Hepatitis C virus [4] = test: Antiviral activity against HCV1b by cell based replicon assay; type: functional, organism-based, Hepacivirus hominis; settings: genotype 1b

| pKi [1] | concentration at 4 h [2] [µM] | pIC50 (Hepatitis C virus [4]) | Compound | pKi (Hepatitis C virus [3]) |
| --- | --- | --- | --- | --- |
| 8.24 | 0.304 | – | C=C[C@@H]1C[C@]1(NC(=O)[C@@H]1C[C@@H]2CN1C(=O)[C@H](C(C)C)NC(=O)N(C)CCCCCc1cc3c(cc(-c4ccccc4)nc3cc1OC)O2)C(=O)NS(=O)(=O)C1CC1 | > 9.80 |
| 6.32 | – | 8.35 | C=C[C@@H]1C[C@]1(NC(=O)[C@@H]1C[C@@H]2CN1C(=O)[C@H](C(C)(C)C)NC(=O)OCCC/C=C/c1ccc3ccnc(c3c1)O2)C(=O)NS(=O)(=O)C1CC1 | 10.40 |
| 7.77 | 41 | – | C=C[C@@H]1C[C@]1(NC(=O)[C@@H]1C[C@@H]2CN1C(=O)[C@H](C1CCCC1)NC(=O)OCC(C)(C)C/C=C/c1cc3c(cc(-c4ccccc4)nc3cc1OC)O2)C(=O)NS(=O)(=O)C1CC1 | > 9.80 |
